Data on 22 molecules can be found in US9650379B2 (CHONG KUN DANG PHARMACEUTICAL CORP., priority 2013, dated 2017).

The target of one test is T1, HDAC6 human recombinant (Homo sapiens, UniProt Q9UBN7).
T1 construct: purchased Calbiochem 382180
T1 sequence (Q9UBN7 1-1215): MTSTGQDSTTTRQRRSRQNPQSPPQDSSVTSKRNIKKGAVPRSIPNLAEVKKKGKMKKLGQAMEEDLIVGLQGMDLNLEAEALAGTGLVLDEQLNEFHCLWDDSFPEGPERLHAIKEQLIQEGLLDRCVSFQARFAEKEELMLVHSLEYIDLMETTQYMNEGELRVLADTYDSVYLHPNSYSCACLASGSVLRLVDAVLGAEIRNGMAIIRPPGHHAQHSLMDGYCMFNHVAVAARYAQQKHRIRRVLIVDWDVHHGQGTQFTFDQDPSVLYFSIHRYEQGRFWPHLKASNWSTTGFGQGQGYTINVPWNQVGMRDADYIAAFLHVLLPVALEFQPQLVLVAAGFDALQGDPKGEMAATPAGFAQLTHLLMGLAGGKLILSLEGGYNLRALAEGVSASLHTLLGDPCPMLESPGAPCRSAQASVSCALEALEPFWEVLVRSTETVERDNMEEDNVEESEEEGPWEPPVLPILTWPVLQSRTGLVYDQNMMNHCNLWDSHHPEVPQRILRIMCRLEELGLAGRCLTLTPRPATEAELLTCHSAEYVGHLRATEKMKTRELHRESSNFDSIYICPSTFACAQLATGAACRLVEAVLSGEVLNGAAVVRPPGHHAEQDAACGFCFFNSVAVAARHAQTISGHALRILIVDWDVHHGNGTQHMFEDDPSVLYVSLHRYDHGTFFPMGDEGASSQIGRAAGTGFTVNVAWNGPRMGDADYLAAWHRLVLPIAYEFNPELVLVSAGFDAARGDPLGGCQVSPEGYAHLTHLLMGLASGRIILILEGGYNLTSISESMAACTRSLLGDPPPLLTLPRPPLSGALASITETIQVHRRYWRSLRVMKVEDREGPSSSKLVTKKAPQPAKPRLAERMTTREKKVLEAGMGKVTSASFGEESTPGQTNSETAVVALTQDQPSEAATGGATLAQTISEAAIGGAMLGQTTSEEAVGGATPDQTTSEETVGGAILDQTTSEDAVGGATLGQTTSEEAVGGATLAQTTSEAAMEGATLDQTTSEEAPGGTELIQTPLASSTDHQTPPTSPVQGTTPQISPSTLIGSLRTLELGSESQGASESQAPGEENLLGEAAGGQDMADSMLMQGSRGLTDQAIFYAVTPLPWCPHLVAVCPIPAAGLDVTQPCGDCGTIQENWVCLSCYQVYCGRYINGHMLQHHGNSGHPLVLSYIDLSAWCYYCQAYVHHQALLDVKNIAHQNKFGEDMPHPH
In words: Inhibition of HDAC6 activity (fluorimetric assay). The format is biochemical. Conditions: test concentrations 0.1, 1, 10, 100 and 1000 nM; 37° C., 60 minutes. On the procedure:
(§1) Assays were performed using a HDAC1 fluorimetric drug discovery assay kit (Enzolifesciences: BML-AK511) and a HDAC6 human recombinant (Calbiochem: 382180). The assay mixture of the kit was treated with a test compound at concentrations of 100, 1000 and 10000 nM for HDAC1 assay and concentrations of 0.1, 1, 10, 100 and 1000 nM for HDAC6 assay. The treated assay mixture was allowed to react at 37° C. for 60 minutes, and then was treated with a developer and allowed to stand at 37° C. for 30 minutes, followed by quantification of the fluorescence.

A further test concerns the target T2, HDAC1 (Homo sapiens, UniProt Q13547).
T2 construct: purchased Enzolifesciences BML-AK511
In words: Inhibition of HDAC1 activity (HDAC1 fluorimetric drug discovery assay kit). The format is biochemical. Conditions: test concentrations 100, 1000 and 10000 nM; 37° C., 60 minutes. The procedure: as §1

T2 sequence (Q13547 whole entry): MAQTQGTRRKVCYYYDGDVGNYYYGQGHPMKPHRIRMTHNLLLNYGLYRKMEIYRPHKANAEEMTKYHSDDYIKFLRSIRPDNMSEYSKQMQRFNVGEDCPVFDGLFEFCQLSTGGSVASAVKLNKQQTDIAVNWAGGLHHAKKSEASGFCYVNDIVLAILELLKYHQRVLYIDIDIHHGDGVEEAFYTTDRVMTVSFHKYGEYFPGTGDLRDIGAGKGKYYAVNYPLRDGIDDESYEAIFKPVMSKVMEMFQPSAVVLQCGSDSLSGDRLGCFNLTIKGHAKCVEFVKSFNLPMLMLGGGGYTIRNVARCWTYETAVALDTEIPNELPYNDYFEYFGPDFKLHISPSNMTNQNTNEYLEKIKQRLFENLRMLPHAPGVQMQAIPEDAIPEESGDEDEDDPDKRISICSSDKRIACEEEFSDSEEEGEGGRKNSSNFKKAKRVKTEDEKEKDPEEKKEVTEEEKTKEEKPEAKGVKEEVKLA

Take `CC(O)(CO)CN1CCC(c2cnc3c(ccn3Cc3ccc(C(=O)NO)cc3)c2)CC1` (stereo not drawn) [Compound 946, 4-((5-(1-(2,3-dihydroxy-2-methylpropyl)piperidin-4-yl)-1H-pyrrolo[2,3-b]pyridin-1-yl)methyl)-N-hydroxybenzamide]: the IC50 – broadly, the concentration that inhibits the measured activity by half – at HDAC6 human recombinant is 2 nM; against HDAC1 it was 490 nM.
Taken in the same sequence, the figures for `O=C(NO)c1ccc(Cn2ccc3cc(C4CCN(Cc5cccc(CN6CCOCC6)c5)CC4)cnc32)cc1` [Compound 878, N-hydroxy-4-((5-(1-(3-(morpholinomethyl)benzyl)piperidin-4-yl)-1H-pyrrolo[2,3-b]pyridin-1-yl)methyl)benzamide] were 6.4 nM and 1120 nM.
Taken in the same sequence, the figures for `CC(C)(F)CN1CC=C(c2cnc3c(ccn3Cc3ccc(C(=O)NO)cc3)c2)CC1` [Compound 617, 4-((5-(1-(2-fluoro-2-methylpropyl)-1,2,3,6-tetrahydropyridin-4-yl)-1H-pyrrolo[2,3-b]pyridin-1-yl)methyl)-N-hydroxybenzamide] were 9 nM and 4220 nM.
Taken in the same sequence, the figures for `O=C(NO)c1ccc(Cn2ccc3cc(-c4ccc(O)cc4)cnc32)cc1` [Compound 691, N-hydroxy-4-((5-(4-hydroxyphenyl)-1H-pyrrolo[2,3-b]pyridin-1-yl)methyl)benzamide] were 5 nM and 2310 nM.
As to `O=C(NO)c1ccc(Cn2ccc3c(N4CCN(c5ccc(C(F)(F)F)cn5)CC4)ccnc32)cc1` [Compound 700, N-hydroxy-4-((4-(4-(5-(trifluoromethyl)pyridin-2-yl)piperazin-1-yl)-1H-pyrrolo[2,3-b]pyridin-1-yl)methyl)benzamide], the values for the IC50 on HDAC6 human recombinant and against HDAC1 were 41 nM and 4240 nM, respectively.
Taken in the same sequence, the figures for `O=C(NO)c1ccc(Cn2ccc3c(N4CCN(c5cnc(C(F)(F)F)cn5)CC4)ccnc32)cc1` [Compound 701, N-hydroxy-4-((4-(4-(5-(trifluoromethyl)pyrazin-2-yl)piperazin-1-yl)-1H-pyrrolo[2,3-b]pyridin-1-yl)methyl)benzamide] were 23 nM and 1530 nM.
Take `CC(C)CN1CCC(c2cnc3c(ccn3Cc3ccc(C(=O)NO)cc3)c2)CC1` [Compound 863, N-hydroxy-4-((5-(1-isobutylpiperidin-4-yl)-1H-pyrrolo[2,3-b]pyridin-1-yl)methyl)benzamide]: the IC50 at HDAC6 human recombinant amounted to 11.5 nM; at HDAC1, 1120 nM.
Taken in the same sequence, the figures for `O=C(NO)c1ccc(Cn2ccc3cc(C4CCN(Cc5ccc(-n6ccnc6)cc5)CC4)cnc32)cc1` [Compound 873, 4-((5-(1-(4-(1H-imidazol-1-yl)benzyl)piperidin-4-yl)-1H-pyrrolo[2,3-b]pyridin-1-yl)methyl)-N-hydroxybenzamide] were 16.5 nM and 760 nM.
Taken in the same sequence, the figures for `O=C(NO)c1ccc(Cn2ccc3cc(C4CCN(C(=O)c5ccc(CN6CCOCC6)cc5)CC4)cnc32)cc1` [Compound 897, N-hydroxy-4-((5-(1-(4-(morpholinomethyl)benzoyl)piperidin-4-yl)-1H-pyrrolo[2,3-b]pyridin-1-yl)methyl)benzamide] were 7.4 nM and 1090 nM.
Taken in the same sequence, the figures for `O=C(NO)c1ccc(Cn2ccc3c(N4CCC5(CCN(Cc6cccnc6)C5)CC4)ccnc32)cc1` [Compound 1022, N-hydroxy-4-((4-(2-(pyridin-3-ylmethyl)-2,8-diazaspiro[4.5]decan-8-yl)-1H-pyrrolo[2,3-b]pyridin-1-yl)methyl)benzamide] were 5.8 nM and 70 nM.
Consider `C[C@@H]1CN(c2cnc3c(ccn3Cc3ccc(C(=O)NO)cc3)c2)C[C@H](C)N1CC(C)(C)O` [Compound 865, N-hydroxy-4-((5-((3S,5R)-4-(2-hydroxy-2-methylpropyl)-3,5-dimethylpiperazin-1-yl)-1H-pyrrolo[2,3-b]pyridin-1-yl)methyl)benzamide], for which the IC50 is 12 nM at HDAC6 human recombinant and 680 nM on HDAC1.
Taken in the same sequence, the figures for `CN1CCC(c2cnc3c(ccn3Cc3ccc(C(=O)NO)cc3)c2)CC1` [Compound 867, N-hydroxy-4-((5-(1-methylpiperidin-4-yl)-1H-pyrrolo[2,3-b]pyridin-1-yl)methyl)benzamide] were 7.8 nM and 620 nM.
Taken in the same sequence, the figures for `O=C(NO)c1ccc(Cn2ccc3c(C4CCN(Cc5ncccn5)CC4)ccnc32)cc1` [Compound 966, N-hydroxy-4-((4-(1-(pyrimidin-2-ylmethyl)piperidin-4-yl)-1H-pyrrolo[2,3-b]pyridin-1-yl)methyl)benzamide] were 3.8 nM and 280 nM.
Taken in the same sequence, the figures for `CN1CCN(Cc2ccc(CN3CCC(c4cnc5c(ccn5Cc5ccc(C(=O)NO)cc5)c4)CC3)cc2)CC1` [Compound 877, N-hydroxy-4-((5-(1-(4-((4-methylpiperazin-1-yl)methyl)benzyl)piperidin-4-yl)-1H-pyrrolo[2,3-b]pyridin-1-yl)methyl)benzamide] were 8.7 nM and 770 nM.
For `O=C(NO)c1ccc(Cn2ccc3c(C4CCN(Cc5cccc(F)c5)CC4)ccnc32)cc1` [Compound 870, 4-((4-(1-(3-fluorobenzyl)piperidin-4-yl)-1H-pyrrolo[2,3-b]pyridin-1-yl)methyl)-N-hydroxybenzamide], the results for the IC50 at HDAC6 human recombinant and against HDAC1 were 20.6 nM and 330 nM, respectively.
With `COc1ccc(-c2cnc3c(ccn3Cc3ccc(C(=O)NO)cc3)c2)cc1` [Compound 689, N-hydroxy-4-((5-(4-methoxyphenyl)-1H-pyrrolo[2,3-b]pyridin-1-yl)methyl)benzamide], the half-inhibitory concentration (IC50) on HDAC6 human recombinant was 83 nM; against HDAC1, 3170 nM.
Taken in the same sequence, the figures for `CC(C)(C)OC(=O)N1CC=C(c2nccc3c2ccn3Cc2ccc(C(=O)NO)cc2)CC1` [Compound 757, tert-butyl 4-(1-(4-(hydroxycarbamoyl)benzyl)-1H-pyrrolo[3,2-c]pyridin-4-yl)-5,6-dihydropyridine-1(2H)-carboxylate] were 17 nM and 1120 nM.
Turning to `COc1ccc(CN2CCC3(CCN(c4ccnc5c4ccn5Cc4ccc(C(=O)NO)cc4)CC3)C2)cc1` [Compound 1021, N-hydroxy-4-((4-(2-(4-methoxybenzyl)-2,8-diazaspiro[4.5]decan-8-yl)-1H-pyrrolo[2,3-b]pyridin-1-yl)methyl)benzamide], the IC50 stood at 14 nM at HDAC6 human recombinant and 240 nM against HDAC1.
Taken in the same sequence, the figures for `CC(C)(C)OC(=O)N1CC=C(c2cc3c(ccn3Cc3ccc(C(=O)NO)cc3)cn2)CC1` [Compound 783, tert-butyl 4-(1-(4-(hydroxycarbamoyl)benzyl)-1H-pyrrolo[3,2-c]pyridin-6-yl)-5,6-dihydropyridine-1(2H)-carboxylate] were 12 nM and 450 nM.
Taken in the same sequence, the figures for `CN1CCN(Cc2cccc(-c3ccnc4c3ccn4Cc3ccc(C(=O)NO)cc3)c2)CC1` [Compound 799, N-hydroxy-4-((4-(3-((4-methylpiperazin-1-yl)methyl)phenyl)-1H-pyrrolo[2,3-b]pyridin-1-yl)methyl)benzamide] were 3.8 nM and 570 nM.
In the case of `COc1ccc(CN2CC3(CCN(c4cnc5c(ccn5Cc5ccc(C(=O)NO)cc5)c4)CC3)C2)cc1` [Compound 1125, N-hydroxy-4-((5-(2-(4-methoxybenzyl)-2,7-diazaspiro[3.5]nonan-7-yl)-1H-pyrrolo[2,3-b]pyridin-1-yl)methyl)benzamide], at HDAC6 human recombinant, the IC50 worked out at 1.8 nM.
Consider `COc1ccc(CN2CCC(c3cnc4c(ccn4Cc4ccc(C(=O)NO)cc4)c3)CC2)cn1` [Compound 1098, N-hydroxy-4-((5-(1-((6-methoxypyridin-3-yl)methyl)piperidin-4-yl)-1H-pyrrolo[2,3-b]pyridin-1-yl)methyl)benzamide], for which, on HDAC6 human recombinant, the IC50 came to 5230 nM.
